According to patent publication US9708336B2, “Metallo-beta-lactamase inhibitors” (priority 2014, dated 2017):
Like-named read-outs stand apart in the source and are kept apart here.

Experiments:
NDM-1 = NDM-1 (Klebsiella pneumoniae, UniProt C7C422); assay: biochemical; assay type: biochemical; conditions: fluorescence assay with CCF2-FA substrate; read-out: NDM-1 IC50
IMP-1 = IMP-1 (Serratia marcescens, UniProt P52699); assay: biochemical; assay type: biochemical; conditions: fluorescence assay with CCF2-FA substrate; read-out: IMP-1 IC50
IMP-1, sequence (P52699 whole entry, looked up): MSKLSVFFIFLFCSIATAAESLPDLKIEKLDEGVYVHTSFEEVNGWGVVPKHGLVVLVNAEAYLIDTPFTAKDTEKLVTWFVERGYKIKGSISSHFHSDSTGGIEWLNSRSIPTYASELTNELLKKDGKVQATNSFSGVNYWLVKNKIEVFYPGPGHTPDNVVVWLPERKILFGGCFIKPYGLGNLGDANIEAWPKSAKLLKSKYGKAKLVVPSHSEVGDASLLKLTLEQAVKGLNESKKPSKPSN

VIM-1 = VIM-1 (Pseudomonas aeruginosa (strain ATCC 15692 / DSM 22644 / CIP 104116 / JCM 14847 / LMG 12228 / 1C / PRS 101 / PAO1), UniProt A0A0F7KYQ8); assay: Enzyme activity: determination of IC50, fluorescence assay with CCF2-FA substrate (VIM-1); assay type: biochemical
[1] = test system: Escherichia coli expressing NDM-1 (CLB30005); assay: Antibiotic potentiation activity: synergistic concentration (MITC95) with imipenem, OD600 growth; assay type: cell-based; conditions: concentration giving 95% inhibition of bacterial growth
Procedure, shortened: (§1)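 CLB30005 was precultured on Mueller Hinton agar with 8 ug/ml imipenem, the other strains on trypticase soy agar with 5% sheep blood, overnight at 35 °C. Saline suspensions diluted 1:100 in 1.1× CAMHB received compound and 4 μg/ml imipenem, then 22–24 h at 35 °C before absorbance reading.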

[2] = test system: Klebsiella pneumoniae expressing VIM-1 (IHMA599644); assay: as above; assay type: cell-based; conditions: concentration giving 95% inhibition of bacterial growth
Procedure, shortened: as §1

[3] = test system: Serratia marcescens expressing IMP-1 (CL5741); assay: as above; assay type: cell-based; conditions: concentration giving 95% inhibition of bacterial growth
Procedure, shortened: as §1

[4] = fluorescence assay with CCF2-FA substrate, read-out: VIM-1 IC50

NDM-1, sequence (C7C422 whole entry, looked up, species assumed): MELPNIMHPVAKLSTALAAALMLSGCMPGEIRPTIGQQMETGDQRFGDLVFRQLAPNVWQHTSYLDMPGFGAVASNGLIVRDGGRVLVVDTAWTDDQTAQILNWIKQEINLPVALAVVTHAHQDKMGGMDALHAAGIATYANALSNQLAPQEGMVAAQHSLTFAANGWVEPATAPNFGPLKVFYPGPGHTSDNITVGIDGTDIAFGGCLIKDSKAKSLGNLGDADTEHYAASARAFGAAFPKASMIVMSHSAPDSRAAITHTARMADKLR

SMILES	IC50 (NDM-1) [µM]	IC50 (IMP-1) [µM]	IC50 (VIM-1; [4]) [µM]	Escherichia coli expressing NDM-1 (CLB 30005) MITC95 [1] [µM]	Klebsiella pneumoniae expressing VIM-1 (IHMA 599644) MITC95 [2] [µM]	Serratia marcescens expressing IMP-1 (CL5741) MITC95 [3] [µM]	IC50 (VIM-1; VIM-1 IC50, fluorescence assay with CCF2-FA substrate) [µM]
N#CC1CC=C(c2cccc(S(N)(=O)=O)c2-c2nn[nH]n2)CC1 (stereo not drawn) [Example 64, 3-(4-cyanocyclohex-1-en-1-yl)-2-(2H-tetrazol-5-yl)benzenesulfonamide]	0.0134	0.248	0.588	1.953	200	50	–
CN1CCC=C(c2cccc(S(N)(=O)=O)c2-c2nn[nH]n2)C1 [Example 65, 3-(1-methyl-1,2,5,6-tetrahydropyridin-3-yl)-2-(2H-tetrazol-5-yl)benzenesulfonamide]	0.905	20	4.99	4.688	>200	>200	–
NS(=O)(=O)c1cccc(-c2ccc3ncccc3c2)c1-c1nn[nH]n1 [Example 66, 3-quinolin-6-yl-2-(2H-tetrazol-5-yl)benzenesulfonamide]	0.0011	0.14	0.0291	0.7813	75	18.75	–
Cn1nnc2ccc(-c3cccc(S(N)(=O)=O)c3-c3nn[nH]n3)cc21 [Example 67, 3-(1-methyl-1H-benzotriazol-6-yl)-2-(2H-tetrazol-5-yl)benzenesulfonamide]	0.00216	0.911	0.057	2.344	62.5	75	–
Cn1ncc2cc(-c3cccc(S(N)(=O)=O)c3-c3nn[nH]n3)ccc21 [Example 68, 3-(1-methyl-1H-indazol-5-yl)-2-(2H-tetrazol-5-yl)benzenesulfonamide]	0.00199	0.0819	0.0337	2.344	75	12.5	–
NS(=O)(=O)c1cccc(-c2ccc3c(=O)nc[nH]c3c2)c1-c1nn[nH]n1 [Example 69, 3-(4-oxo-1,4-dihydroquinazolin-7-yl)-2-(2H-tetrazol-5-yl)benzenesulfonamide]	0.00505	0.237	0.0264	0.7813	25	18.75	–
NS(=O)(=O)c1cccc(-c2cccc(-n3nccn3)c2)c1-c1nn[nH]n1 [Example 70, 2-(2H-tetrazol-5-yl)-3′-(2H-1,2,3-triazol-2-yl)biphenyl-3-sulfonamide]	0.002	0.105	0.0289	1.563	150	18.75	–
NS(=O)(=O)c1cccc(-c2ccc3ccncc3c2)c1-c1nn[nH]n1 [Example 71, 3-isoquinolin-7-yl-2-(2H-tetrazol-5-yl)benzenesulfonamide]	0.00122	0.0786	0.0145	0.7813	75	18.75	–
NS(=O)(=O)c1cccc(-c2ccc(-c3nnn[nH]3)cc2)c1-c1nn[nH]n1 [Example 72, 4′-(1H-tetrazol-5-yl)-2-(2H-tetrazol-5-yl)biphenyl-3-sulfonamide]	0.000637	0.0487	0.0222	2.344	25	12.5	–
CC1C(=O)Nc2ccc(-c3cccc(S(N)(=O)=O)c3-c3nn[nH]n3)cc21 (stereo not drawn) [Example 73, 3-(3-methyl-2-oxo-2,3-dihydro-1H-indo1-5-yl)-2-(2H-tetrazol-5-yl)benzenesulfonamide]	0.00649	0.156	0.0667	1.563	100	18.75	–
NS(=O)(=O)c1cccc(-c2ccc3[nH]nnc3c2)c1-c1nn[nH]n1 [Example 74, 3-(1H-benzotriazol-5-yl)-2-(2H-tetrazol-5-yl)benzenesulfonamide]	0.0264	1.61	–	0.9766	50	18.75	0.475
